Experimental data as given in ChEMBL document CHEMBL1201862, “PubChem BioAssay data set” (2004).
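Each compound was tested at five concentrations against cells in 96-well plates for 48 hours. At the GI50, growth is halved.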 The source made the active and inactive calls. Cut-off read from the data, not from the text of the source: active = GI50 up to about 1.1 µM and inactive = higher.

Columns and labels:
Test in all cases: inhibition of tumour cell growth, NCI panel, 48 h
SN12C = system: SN12C
SF-539 = system: SF-539
OVCAR-4 = system: OVCAR-4
KM-20L2 = system: KM-20L2
SF-295 = system: SF-295
NCI-H522 = system: NCI-H522
DU-145 = system: DU-145
OVCAR-3 = system: OVCAR-3
HT-29 = system: HT-29
HOP-92 = system: HOP-92
SF-268 = system: SF-268
LXFL 529 = system: LXFL 529
NCI-H23 = system: NCI-H23
HL-60 = system: HL-60
SK-MEL-5 = system: SK-MEL-5
MCF7 = system: MCF7
MDA-MB-231 = system: MDA-MB-231
A498 = system: A498
NCI-H460 = system: NCI-H460
K562 = system: K562
BT-549 = system: BT-549
UACC-257 = system: UACC-257
ACHN = system: ACHN
UACC-62 = system: UACC-62
M14 = system: M14
IGROV-1 = system: IGROV-1
SK-MEL-28 = system: SK-MEL-28
SR = system: SR
KM12 = system: KM12
SW-620 = system: SW-620
CCRF-CEM = system: CCRF-CEM
SNB-19 = system: SNB-19
RXF 393 = system: RXF 393
HOP-18 = system: HOP-18
SNB-75 = system: SNB-75
SNB-78 = system: SNB-78
U-251 = system: U-251
OVCAR-8 = system: OVCAR-8
MDA-MB-435 = system: MDA-MB-435
HCT-116 = system: HCT-116
UO-31 = system: UO-31
LOX IMVI = system: LOX IMVI
DLD-1 = system: DLD-1
M19-MEL = system: M19-MEL
OVCAR-5 = system: OVCAR-5
T47D = system: T47D
EKVX = system: EKVX
RPMI-8226 = system: RPMI-8226
CAKI-1 = system: CAKI-1
DMS-114 = system: DMS-114
SK-MEL-2 = system: SK-MEL-2
COLO 205 = system: COLO 205
HCC 2998 = system: HCC 2998
PC-3 = system: PC-3
NCI/ADR-RES = system: NCI/ADR-RES
MDA-N = system: MDA-N
TK-10 = system: TK-10
HCT-15 = system: HCT-15
786-0 = system: 786-0
DMS-273 = system: DMS-273
HOP-62 = system: HOP-62
Malme-3M = system: Malme-3M
A549 = system: A549
NCI-H226 = system: NCI-H226
SK-OV-3 = system: SK-OV-3
Hs-578T = system: Hs-578T
MOLT-4 = system: MOLT-4
XF498 = system: XF498

With `O=Nc1ccc(O)c2ncccc12` the GI50 (SN12C) was 8.18 µM (inactive), the GI50 (SF-539) was 1.44 µM (inactive) and the GI50 (OVCAR-4) was 11.6 µM (inactive). For the same compound, the GI50 (KM-20L2) was 23.9 µM (inactive), the GI50 (SF-295) was 8.05 µM (inactive) and the GI50 (NCI-H522) was 1.43 µM (inactive). For the same compound, the GI50 (DU-145) was 5.7 µM (inactive), the GI50 (OVCAR-3) was 3.33 µM (inactive) and the GI50 (HT-29) was 15.3 µM (inactive). For the same compound, the GI50 (HOP-92) was 3.09 µM (inactive), the GI50 (SF-268) was 3.68 µM (inactive) and the GI50 (LXFL 529) was 2.38 µM (inactive). The GI50 (NCI-H23) was 0.762 µM (active), the GI50 (HL-60) was 0.581 µM (active) and the GI50 (SK-MEL-5) was 7.21 µM (inactive). For the same compound, the GI50 (MCF7) was 1.76 µM (inactive), the GI50 (MDA-MB-231) was 6.43 µM (inactive) and the GI50 (A498) was 18.5 µM (inactive). For the same compound, the GI50 (NCI-H460) was 1.25 µM (inactive), the GI50 (K562) was 0.711 µM (active) and the GI50 (BT-549) was 10.5 µM (inactive). For the same compound, the GI50 (UACC-257) was 6.37 µM (inactive), the GI50 (ACHN) was 3.13 µM (inactive) and the GI50 (UACC-62) was 0.875 µM (active). For the same compound, the GI50 (M14) was 6.03 µM (inactive), the GI50 (IGROV-1) was 5.46 µM (inactive) and the GI50 (SK-MEL-28) was 4.34 µM (inactive). For the same compound, the GI50 (SR) was 0.328 µM (active), the GI50 (KM12) was 5.19 µM (inactive) and the GI50 (SW-620) was 4.79 µM (inactive). For the same compound, the GI50 (CCRF-CEM) was 0.611 µM (active), the GI50 (SNB-19) was 16 µM (inactive) and the GI50 (RXF 393) was 1.67 µM (inactive). For the same compound, the GI50 (HOP-18) was 11.3 µM (inactive), the GI50 (SNB-75) was 2.51 µM (inactive) and the GI50 (SNB-78) was 2.43 µM (inactive). For the same compound, the GI50 (U-251) was 3.31 µM (inactive), the GI50 (OVCAR-8) was 3.47 µM (inactive) and the GI50 (MDA-MB-435) was 1.26 µM (inactive). For the same compound, the GI50 (HCT-116) was 0.822 µM (active), the GI50 (UO-31) was 2.98 µM (inactive) and the GI50 (LOX IMVI) was 3.89 µM (inactive). For the same compound, the GI50 (DLD-1) was 9.57 µM (inactive), the GI50 (M19-MEL) was 4.25 µM (inactive) and the GI50 (OVCAR-5) was 15.7 µM (inactive). For the same compound, the GI50 (T47D) was 7.53 µM (inactive), the GI50 (EKVX) was 0.525 µM (active) and the GI50 (RPMI-8226) was 3.52 µM (inactive). For the same compound, the GI50 (CAKI-1) was 16.3 µM (inactive), the GI50 (DMS-114) was 3.9 µM (inactive) and the GI50 (SK-MEL-2) was 2.21 µM (inactive). For the same compound, the GI50 (COLO 205) was 16.1 µM (inactive), the GI50 (HCC 2998) was 15.6 µM (inactive) and the GI50 (PC-3) was 14.7 µM (inactive). For the same compound, the GI50 (NCI/ADR-RES) was 3.85 µM (inactive), the GI50 (MDA-N) was 1.75 µM (inactive) and the GI50 (TK-10) was 14.8 µM (inactive). For the same compound, the GI50 (HCT-15) was 2.52 µM, the GI50 (786-0) was 4.2 µM (inactive) and the GI50 (DMS-273) was 2.55 µM (inactive). The GI50 (HOP-62) was 2.8 µM (inactive), the GI50 (Malme-3M) was 11.8 µM (inactive) and the GI50 (A549) was 2.5 µM (inactive). The GI50 (NCI-H226) was 19.6 µM (inactive), the GI50 (SK-OV-3) was 12.6 µM (inactive) and the GI50 (Hs-578T) was 531 nM (active).

`Brc1ccc(C2SCc3nc4ccccc4n32)cc1` (configuration not stated) was tested, and the GI50 (SN12C) was 13.7 µM (inactive), the GI50 (SF-539) was 18.5 µM (inactive) and the GI50 (OVCAR-4) was 7.53 µM (inactive). For the same compound, the GI50 (SF-295) was 11.5 µM (inactive), the GI50 (NCI-H522) was 2.3 µM (inactive) and the GI50 (OVCAR-3) was 4.83 µM (inactive). The GI50 (HT-29) was 7.78 µM (inactive), the GI50 (HOP-92) was 1.06 µM (active) and the GI50 (SF-268) was 13.6 µM (inactive). For the same compound, the GI50 (LXFL 529) was 7.36 µM (inactive), the GI50 (NCI-H23) was 2.75 µM (inactive) and the GI50 (HL-60) was 3.19 µM (inactive). For the same compound, the GI50 (SK-MEL-5) was 3.72 µM (inactive), the GI50 (NCI-H460) was 12.9 µM (inactive) and the GI50 (K562) was 3.65 µM (inactive). For the same compound, the GI50 (ACHN) was 8.2 µM (inactive), the GI50 (UACC-62) was 6.68 µM (inactive) and the GI50 (M14) was 12.4 µM (inactive). The GI50 (IGROV-1) was 10.3 µM (inactive), the GI50 (SK-MEL-28) was 4.72 µM (inactive) and the GI50 (SR) was 7.6 µM (inactive). The GI50 (KM12) was 5.98 µM (inactive), the GI50 (SW-620) was 13.3 µM (inactive) and the GI50 (MOLT-4) was 13.4 µM (inactive). The GI50 (CCRF-CEM) was 15.7 µM (inactive), the GI50 (SNB-19) was 4.48 µM (inactive) and the GI50 (RXF 393) was 7.45 µM (inactive). For the same compound, the GI50 (HOP-18) was 45.5 µM (inactive), the GI50 (SNB-75) was < 0.01 µM (active) and the GI50 (SNB-78) was 6.32 µM (inactive). The GI50 (U-251) was 12 µM (inactive), the GI50 (OVCAR-8) was 12.8 µM (inactive) and the GI50 (HCT-116) was 6.3 µM (inactive). The GI50 (UO-31) was 11 µM (inactive), the GI50 (LOX IMVI) was 6.46 µM (inactive) and the GI50 (DLD-1) was 10.5 µM (inactive). The GI50 (M19-MEL) was 12.4 µM (inactive), the GI50 (OVCAR-5) was 5.4 µM (inactive) and the GI50 (EKVX) was 11.9 µM (inactive). The GI50 (RPMI-8226) was 5.08 µM (inactive), the GI50 (XF498) was 11.8 µM (inactive) and the GI50 (CAKI-1) was 14.4 µM (inactive). For the same compound, the GI50 (SK-MEL-2) was 14.1 µM (inactive), the GI50 (COLO 205) was 12.7 µM (inactive) and the GI50 (TK-10) was 13.8 µM (inactive). For the same compound, the GI50 (HCT-15) was 11.3 µM, the GI50 (786-0) was 12.2 µM (inactive) and the GI50 (HOP-62) was 7.57 µM (inactive). The GI50 (Malme-3M) was 12.9 µM (inactive), the GI50 (A549) was 19 µM (inactive) and the GI50 (NCI-H226) was 17.4 µM (inactive). For the same compound, the GI50 (SK-OV-3) was 16.7 µM (inactive).

`CC(C)C1C(=O)NC(CO)Cc2c[nH]c3c(C(c4c[nH]c5ccccc45)C(O)CO)ccc(c23)N1C` (configuration not stated) was tested, and the GI50 (SN12C) was > 100 µM (inactive), the GI50 (SF-539) was > 100 µM (inactive) and the GI50 (OVCAR-4) was > 100 µM (inactive). The GI50 (SF-295) was 37.2 µM (inactive), the GI50 (NCI-H522) was > 100 µM (inactive) and the GI50 (OVCAR-3) was > 100 µM (inactive). The GI50 (HT-29) was > 100 µM (inactive), the GI50 (HOP-92) was 0.612 µM (active) and the GI50 (SF-268) was > 100 µM (inactive). For the same compound, the GI50 (LXFL 529) was 96.4 µM (inactive), the GI50 (NCI-H23) was > 100 µM (inactive) and the GI50 (HL-60) was 5.11 µM (inactive). The GI50 (SK-MEL-5) was 16.4 µM (inactive), the GI50 (A498) was 14.5 µM (inactive) and the GI50 (NCI-H460) was 5.02 µM (inactive). The GI50 (K562) was 4.19 µM (inactive), the GI50 (UACC-257) was > 100 µM (inactive) and the GI50 (ACHN) was 41.3 µM (inactive). For the same compound, the GI50 (UACC-62) was 79.8 µM (inactive), the GI50 (M14) was > 100 µM (inactive) and the GI50 (IGROV-1) was > 100 µM (inactive). The GI50 (SK-MEL-28) was > 100 µM (inactive), the GI50 (SR) was 21.7 µM (inactive) and the GI50 (KM12) was > 100 µM (inactive). For the same compound, the GI50 (SW-620) was 74.8 µM (inactive), the GI50 (MOLT-4) was 49 µM (inactive) and the GI50 (CCRF-CEM) was 30.1 µM (inactive). The GI50 (SNB-19) was > 100 µM (inactive), the GI50 (RXF 393) was > 100 µM (inactive) and the GI50 (HOP-18) was 5.56 µM (inactive). The GI50 (SNB-75) was 84.9 µM (inactive), the GI50 (SNB-78) was 54.7 µM (inactive) and the GI50 (OVCAR-8) was > 100 µM (inactive). For the same compound, the GI50 (HCT-116) was > 100 µM (inactive), the GI50 (UO-31) was > 100 µM (inactive) and the GI50 (LOX IMVI) was > 100 µM (inactive). For the same compound, the GI50 (DLD-1) was > 100 µM (inactive), the GI50 (M19-MEL) was > 100 µM (inactive) and the GI50 (EKVX) was > 100 µM (inactive). For the same compound, the GI50 (RPMI-8226) was > 100 µM (inactive), the GI50 (XF498) was 20 µM (inactive) and the GI50 (SK-MEL-2) was > 100 µM (inactive). The GI50 (COLO 205) was 4.79 µM (inactive), the GI50 (HCC 2998) was 3.38 µM (inactive) and the GI50 (TK-10) was 36.3 µM (inactive). The GI50 (786-0) was 62.8 µM (inactive), the GI50 (DMS-273) was > 100 µM (inactive) and the GI50 (A549) was 23.5 µM (inactive). The GI50 (SK-OV-3) was > 100 µM (inactive).
